According to publication PMC12309968 (iScience, 2025):
≈ marks a conversion by molar mass, not a printed value. Entries after “also recorded” stand apart in the source; their conditions may differ. Read-outs that look alike come from different tables or passages of the source. Positions of bridges follow the written chain, without caps; N, C: chain ends. Non-standard residues stand in square brackets, D forms with d. Residues, ends and D or L forms follow the SMILES beside them. *: point of attachment. Octanoyl = CCCCCCCC(=O)*; Dab = NCC[C@H](N)C(=O)O; Abu = CC[C@H](N)C(=O)O

Assays:
[1] = in vivo; cited from earlier work
Stx2a = Stx2a (Escherichia phage 933W, UniProt P09385+P09386); assay: biochemical; assay type: binding, E. coli (C600-933W strain)
cynomolgus monkey = conditions: in vivo; cited from earlier work
CD-1 mice = conditions: mouse, in vivo, iv
[2] = tested on: human renal tubular cells; conditions: cited from earlier work
[3] = tested on: Stx2a binding to TLR4-expressing Gb3Cer-lacking human neutrophils
[4] = target: lactate dehydrogenase A (LDH-A), tetrameric form (Homo sapiens, UniProt P00338); assay: biochemical; assay type: binding
E. coli SOS response = conditions: cited from earlier work
[5] = tested on: interaction between LPS and TLR4; conditions: cited from earlier work
Shigella = conditions: cited from earlier work
SOS response = conditions: cited from earlier work
[6] = tested on: Raji cells (Gb3Cer-expressing); conditions: cited from earlier work
E. coli = conditions: cited from earlier work
[7] = tested on: monocyte/platelet aggregates; assay type: cell-based, human
[8] = tested on: neutrophil/platelet aggregates; assay type: cell-based, human
[9] = tested on: Stx2a binding to TLR4-expressing Gb3Cer-lacking human neutrophils; conditions: cited from earlier work

Compound: CCCCCCCC(=O)N[C@@H](CCN)C(=O)N[C@H](C(=O)N[C@@H](C(=O)N[C@H]1CCNC(=O)[C@H]([C@@H](C)O)NC(=O)[C@H](CCN)NC(=O)[C@H](CC)NC(=O)[C@H](CC(C)C)NC(=O)[C@@H](Cc2ccccc2)NC(=O)[C@H](CCN)NC1=O)[C@H](C)O)[C@@H](C)O [NAB815] (Octanoyl-[Dab]T[dT][Dab][Dab][dF]L[Abu][Dab]T; lactam 4-C)
- excretion into urine relative to polymyxin B [1]: approximately 10 times
- Kd (Stx2a): 0.05 µM
- maximum reduction (quenching) of Stx2a fluorescence (Stx2a): approximately 10%
- serum creatinine, blood urea nitrogen, urinary biomarkers (cynomolgus monkey): no significant increase in serum creatinine, blood urea nitrogen, or in the urinary biomarkers tested
- tolerability (cynomolgus monkey): well tolerated
- hemolysis (human erythrocytes): no hemolysis occurred
- serum creatinine and urea (CD-1 mice): No changes in serum creatinine and urea were found
- necrotic leukocytes (7-AAD+) (human leukocytes): the number of necrotic cells was negligible
- IC50, cytotoxicity to human renal tubular cells [2]: 334 µg/mL (≈ 284 µM)
- cytotoxicity lower than that of polymyxin B (fold) [2]: approximately 20 times
- IC50 in inhibiting the binding of Stx2a to human neutrophils [3]: 0.057 µg/mL
- Kd [4]: 10 µM

Compound: O=C(O)c1cn(C2CC2)c2cc(N3CCNCC3)c(F)cc2c1=O [ciprofloxacin]
- MIC/SIC ratio (E. coli SOS response): 8
- SOS-inducing action (E. coli SOS response): frequently used as a model antibiotic inducing the SOS response

Compound: CNC(C)C1CCC(N)C(OC2C(N)CC(N)C(OC3OCC(C)(O)C(NC)C3O)C2O)O1 (stereo not drawn) [gentamicin]
- MIC/SIC ratio (E. coli SOS response): 1.8
- SOS-inducing action (E. coli SOS response): poor

Compound: CO[C@@]12[C@H](COC(N)=O)C3=C(C(=O)C(C)=C(N)C3=O)N1C[C@@H]1N[C@@H]12 [mitomycin C]
- MIC/SIC ratio (E. coli SOS response): 1.4
- SOS-inducing action (E. coli SOS response): strong SOS-inducing actions

Compound: Triton X-100
- hemolysis (human erythrocytes): no hemolysis occurred, unlike treatment with Triton X-100, chosen as a positive control

Compound: polymyxin B
- tolerability (cynomolgus monkey): had to be euthanized because of severe nephrotoxicity
- block of LPS/TLR4 interaction [5]: known to block the interaction between the bacterial endotoxin (lipopolysaccharide [LPS]) and TLR4
- concentration inducing release of considerable amounts of Stx by Shigella (Shigella): higher than 1 μg/mL
- concentration eliciting the SOS response (SOS response): higher than 1 μg/mL
- lack of protection of Gb3Cer-expressing Raji cells from Stx2a [6]: as previously shown with polymyxin B
- MIC (E. coli): 1 µg/mL
- IC50, cytotoxicity to human renal tubular cells [2]: 18 µg/mL
- effect on monocyte/platelet aggregates [7]: ineffective at these concentrations
- effect on neutrophil/platelet aggregates [8]: ineffective at these concentrations
- IC50 in inhibiting the binding of Stx2a to human neutrophils [9]: 3.5 µg/mL
- effect on Stx2a/TLR4 interactions, binding of Stx2a to leukocytes [9]: effectively impairs the Stx2a/TLR4 interactions; also recorded: does block the binding of Stx2a to leukocytes at μg/mL concentrations that are also highly bactericidal
